Source: ChEMBL document CHEMBL1201862, “PubChem BioAssay data set” (2004)
Values joined by “and” are separate entries in the source; they are usually repeats but may differ in a detail not shown here. Equal entries are not always repeated.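 Assay format: 96-well plates, 48-hour exposure. GI50 is the concentration that inhibits growth by half.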 Active and inactive are the calls of the source. Cut-off read from the data, not from the text of the source: active = GI50 up to about 1.1 µM and inactive = higher.

What was measured:
Experiment in all cases: NCI anticancer screen, dose series, 48 h
[1] = tested on: SW-620
[2] = tested on: PC-3
[3] = tested on: MCF7
[4] = tested on: HCC 2998
[5] = tested on: Hs-578T
[6] = tested on: NCI-H522
[7] = tested on: Malme-3M
[8] = tested on: UACC-62
[9] = tested on: A549
[10] = tested on: SN12C
[11] = tested on: 786-0
[12] = tested on: HCT-116
[13] = tested on: HT-29
[14] = tested on: SNB-19
[15] = tested on: MDA-N
[16] = tested on: UO-31
[17] = tested on: RXF 393
[18] = tested on: HL-60
[19] = tested on: SF-295
[20] = tested on: BT-549
[21] = tested on: SK-MEL-5
[22] = tested on: K562
[23] = tested on: DU-145
[24] = tested on: LOX IMVI
[25] = tested on: U-251
[26] = tested on: NCI-H23
[27] = tested on: OVCAR-4
[28] = tested on: CAKI-1
[29] = tested on: EKVX
[30] = tested on: NCI/ADR-RES
[31] = tested on: OVCAR-5
[32] = tested on: OVCAR-3
[33] = tested on: HCT-15
[34] = tested on: ACHN
[35] = tested on: MDA-MB-435
[36] = tested on: KM12
[37] = tested on: UACC-257
[38] = tested on: A498
[39] = tested on: CCRF-CEM
[40] = tested on: SF-268
[41] = tested on: NCI-H460
[42] = tested on: TK-10
[43] = tested on: MOLT-4
[44] = tested on: SR
[45] = tested on: M14
[46] = tested on: OVCAR-8
[47] = tested on: SK-OV-3
[48] = tested on: HOP-62
[49] = tested on: SNB-75
[50] = tested on: COLO 205
[51] = tested on: RPMI-8226
[52] = tested on: IGROV-1
[53] = tested on: SF-539
[54] = tested on: MDA-MB-231
[55] = tested on: SK-MEL-2
[56] = tested on: T47D
[57] = tested on: NCI-H226
[58] = tested on: SK-MEL-28
[59] = tested on: HOP-92

## COc1ccc(-c2c(C(C)=O)c(-c3ccccc3)n(C3OC(COC(C)=O)C(OC(C)=O)C(OC(C)=O)C3OC(C)=O)c(=S)c2C#N)cc1O (stereo not drawn)
[1]
  GI50: 93.8 µM (inactive) and 91.6 µM (inactive)
[2]
  GI50: 26.4 µM (inactive) and 41.4 µM (inactive)
[3]
  GI50: 28.6 µM (inactive) and 36.1 µM (inactive)
[4]
  GI50: 24.1 µM (inactive) and 18.2 µM (inactive)
[5]
  GI50: 47.6 µM (inactive) and 70.5 µM (inactive)
[6]
  GI50: 17.6 µM (inactive) and 10.1 µM (inactive)
[7]
  GI50: 18.5 µM (inactive) and 16.4 µM (inactive)
[8]
  GI50: 38.7 µM (inactive) and 19.9 µM (inactive)
[9]
  GI50: 68.5 µM (inactive) and 44.9 µM (inactive)
[10]
  GI50: > 100 µM (inactive) and 52.1 µM (inactive)
[11]
  GI50: 36.5 µM (inactive) and 36.9 µM (inactive)
[12]
  GI50: 21.8 µM (inactive) and 36.2 µM (inactive)
[13]
  GI50: 36.9 µM (inactive)
[14]
  GI50: 71.4 µM (inactive)
[15]
  GI50: 27.5 µM (inactive) and 33.5 µM (inactive)
[16]
  GI50: 56.9 µM (inactive) and 36.4 µM (inactive)
[17]
  GI50: 40.6 µM (inactive) and 42.1 µM (inactive)
[18]
  GI50: 7.1 µM (inactive)
[19]
  GI50: 64.4 µM (inactive) and 36.4 µM (inactive)
[20]
  GI50: 33.7 µM (inactive)
[21]
  GI50: 33.4 µM (inactive) and 30.1 µM (inactive)
[22]
  GI50: 47.9 µM (inactive) and 49.4 µM (inactive)
[23]
  GI50: 37.8 µM (inactive) and 26.9 µM (inactive)
[24]
  GI50: 34.6 µM (inactive) and 23.2 µM (inactive)
[25]
  GI50: 91.8 µM (inactive) and 69.5 µM (inactive)
[26]
  GI50: 35.4 µM (inactive) and 26 µM (inactive)
[27]
  GI50: 31.8 µM (inactive) and 24.7 µM (inactive)
[28]
  GI50: 62.8 µM (inactive) and 49.7 µM (inactive)
[29]
  GI50: 25.9 µM (inactive) and 34.6 µM (inactive)
[30]
  GI50: 38.3 µM (inactive)
[31]
  GI50: > 100 µM (inactive) and 66.7 µM (inactive)
[32]
  GI50: 29.4 µM (inactive) and 16.8 µM (inactive)
[33]
  GI50: 42.3 µM and 28 µM
[34]
  GI50: 40.8 µM (inactive) and 32.9 µM (inactive)
[35]
  GI50: 39.1 µM (inactive) and 32 µM (inactive)
[36]
  GI50: 33.7 µM (inactive) and 19.1 µM (inactive)
[37]
  GI50: 55.8 µM (inactive) and 34.9 µM (inactive)
[38]
  GI50: > 100 µM (inactive)

## CC(=O)O[C@@H]1C2=C(C)C=C(O2)[C@H]2O[C@]2(C)C[C@H]2C=C(C(=O)O2)[C@H](OC(C)=O)CC1[C@@]1(C)CO1 (stereo partly drawn)
[1]
  GI50: 12.8 µM (inactive)
[2]
  GI50: 32.4 µM (inactive)
[39]
  GI50: 8.59 µM (inactive)
[40]
  GI50: 42 µM (inactive)
[3]
  GI50: 18 µM (inactive)
[4]
  GI50: > 100 µM (inactive)
[41]
  GI50: 37 µM (inactive)
[6]
  GI50: 3.23 µM (inactive)
[7]
  GI50: 17.5 µM (inactive)
[42]
  GI50: 60.3 µM (inactive)
[8]
  GI50: 21.7 µM (inactive)
[43]
  GI50: 9.64 µM (inactive)
[9]
  GI50: 45.3 µM (inactive)
[44]
  GI50: 18.7 µM (inactive)
[10]
  GI50: 21.3 µM (inactive)
[11]
  GI50: 23.9 µM (inactive)
[12]
  GI50: 15.1 µM (inactive)
[45]
  GI50: 23.8 µM (inactive)
[13]
  GI50: 25.4 µM (inactive)
[14]
  GI50: > 100 µM (inactive)
[15]
  GI50: 30.3 µM (inactive)
[16]
  GI50: 20.1 µM (inactive)
[46]
  GI50: 35.4 µM (inactive)
[17]
  GI50: 17.2 µM (inactive)
[47]
  GI50: > 100 µM (inactive)
[48]
  GI50: 23 µM (inactive)
[19]
  GI50: 36.1 µM (inactive)
[49]
  GI50: 42.5 µM (inactive)
[20]
  GI50: 21.1 µM (inactive)
[21]
  GI50: 35.7 µM (inactive)
[50]
  GI50: 14.1 µM (inactive)
[51]
  GI50: 13.9 µM (inactive)
[22]
  GI50: 17 µM (inactive)
[52]
  GI50: 14.3 µM (inactive)
[23]
  GI50: 31.3 µM (inactive)
[53]
  GI50: 29.5 µM (inactive)
[24]
  GI50: 18.4 µM (inactive)
[54]
  GI50: 27.4 µM (inactive)
[25]
  GI50: 19.1 µM (inactive)
[26]
  GI50: 28.9 µM (inactive)
[27]
  GI50: 27.7 µM (inactive)
[28]
  GI50: 24.2 µM (inactive)
[29]
  GI50: 26.2 µM (inactive)
[30]
  GI50: 29.4 µM (inactive)
[55]
  GI50: 56.1 µM (inactive)
[31]
  GI50: 26.4 µM (inactive)
[56]
  GI50: 18.8 µM (inactive)
[33]
  GI50: 22 µM
[34]
  GI50: 23.7 µM (inactive)
[35]
  GI50: 23.5 µM (inactive)
[36]
  GI50: 36.6 µM (inactive)
[57]
  GI50: > 100 µM (inactive)
[58]
  GI50: 19.4 µM (inactive)
[37]
  GI50: 28.1 µM (inactive)
[38]
  GI50: > 100 µM (inactive)

## COc1ccc(/C(Cl)=C(\C#N)c2ccc(OC)c(OC)c2)cc1OC
[1]
  GI50: > 100 µM (inactive)
[2]
  GI50: 79.1 µM (inactive)
[39]
  GI50: > 10 µM (inactive)
[3]
  GI50: 59 µM (inactive)
[4]
  GI50: > 100 µM (inactive)
[41]
  GI50: 36.8 µM (inactive)
[6]
  GI50: 59.8 µM (inactive)
[42]
  GI50: > 100 µM (inactive)
[8]
  GI50: 42.3 µM (inactive)
[43]
  GI50: 78.9 µM (inactive)
[9]
  GI50: > 100 µM (inactive)
[44]
  GI50: 40.2 µM (inactive)
[10]
  GI50: > 100 µM (inactive)
[11]
  GI50: > 100 µM (inactive)
[12]
  GI50: 60.1 µM (inactive)
[45]
  GI50: > 100 µM (inactive)
[13]
  GI50: 38.6 µM (inactive)
[14]
  GI50: > 100 µM (inactive)
[15]
  GI50: > 100 µM (inactive)
[16]
  GI50: 59 µM (inactive)
[17]
  GI50: 38.6 µM (inactive)
[18]
  GI50: 15.3 µM (inactive)
[48]
  GI50: 43.7 µM (inactive)
[19]
  GI50: 61.5 µM (inactive)
[20]
  GI50: 57.7 µM (inactive)
[21]
  GI50: 46.8 µM (inactive)
[50]
  GI50: 44.5 µM (inactive)
[51]
  GI50: 15 µM (inactive)
[22]
  GI50: 48.9 µM (inactive)
[52]
  GI50: > 100 µM (inactive)
[23]
  GI50: > 100 µM (inactive)
[53]
  GI50: > 100 µM (inactive)
[24]
  GI50: > 100 µM (inactive)
[54]
  GI50: 35.6 µM (inactive)
[25]
  GI50: 40.1 µM (inactive)
[26]
  GI50: 80.2 µM (inactive)
[27]
  GI50: 81.5 µM (inactive)
[28]
  GI50: 54.2 µM (inactive)
[29]
  GI50: 21.3 µM (inactive)
[59]
  GI50: 17.8 µM (inactive)
[55]
  GI50: 96.2 µM (inactive)
[31]
  GI50: > 100 µM (inactive)
[56]
  GI50: 34.4 µM (inactive)
[32]
  GI50: 63.1 µM (inactive)
[33]
  GI50: 44.3 µM
[34]
  GI50: 93.8 µM (inactive)
[35]
  GI50: 87.7 µM (inactive)
[57]
  GI50: 77.4 µM (inactive)
[37]
  GI50: > 100 µM (inactive)
[38]
  GI50: > 100 µM (inactive)
